Columns and labels:
TRPC4 = target: T1, TRPC4 (Homo sapiens, UniProt Q9UBN4); assay: Electrophysiology (QPatch-HT automated patch clamp, voltage ramp); format: cell-based; details: 10 μM ML204 + 5 μM englerin A; Dox-induced TRPC4
T1 construct: host or cells: Flp-In T-REx-293 (called HEK293T with Dox-inducible TRPC4)
T1 sequence (Q9UBN4 1-977): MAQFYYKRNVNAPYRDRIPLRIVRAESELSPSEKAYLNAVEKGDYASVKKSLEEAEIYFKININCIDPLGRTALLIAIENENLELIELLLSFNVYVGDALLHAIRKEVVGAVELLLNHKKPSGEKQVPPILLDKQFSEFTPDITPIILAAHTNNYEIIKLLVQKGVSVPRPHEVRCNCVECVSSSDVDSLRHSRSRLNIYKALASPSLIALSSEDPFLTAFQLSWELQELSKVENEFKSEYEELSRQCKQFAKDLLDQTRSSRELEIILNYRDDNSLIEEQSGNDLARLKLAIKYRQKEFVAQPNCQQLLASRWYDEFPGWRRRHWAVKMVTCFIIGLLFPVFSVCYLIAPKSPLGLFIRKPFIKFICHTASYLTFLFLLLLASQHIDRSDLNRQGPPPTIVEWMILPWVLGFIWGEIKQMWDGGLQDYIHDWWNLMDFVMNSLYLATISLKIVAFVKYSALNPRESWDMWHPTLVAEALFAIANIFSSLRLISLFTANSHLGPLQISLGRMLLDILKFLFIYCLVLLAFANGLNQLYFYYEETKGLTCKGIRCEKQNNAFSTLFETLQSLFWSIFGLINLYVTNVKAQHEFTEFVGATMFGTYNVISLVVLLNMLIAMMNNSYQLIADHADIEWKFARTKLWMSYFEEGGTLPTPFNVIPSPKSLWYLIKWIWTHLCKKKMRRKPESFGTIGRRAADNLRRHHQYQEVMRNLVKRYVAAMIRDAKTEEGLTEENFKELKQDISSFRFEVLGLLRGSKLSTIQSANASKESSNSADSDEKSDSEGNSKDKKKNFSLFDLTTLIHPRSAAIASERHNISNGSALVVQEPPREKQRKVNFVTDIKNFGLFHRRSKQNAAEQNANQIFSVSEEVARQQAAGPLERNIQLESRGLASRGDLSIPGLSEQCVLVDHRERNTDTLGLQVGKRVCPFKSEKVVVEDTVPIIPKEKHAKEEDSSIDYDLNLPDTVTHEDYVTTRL
Method: TRPC4 currents were recorded from HEK293T cells with Dox-inducible TRPC4 on the QPatch-HT automated patch clamp system at room temperature (21–24°C) (Biolin Scientific, Stockholm, Sweden). The internal solution contained (in mM): 150 Cs-aspartate, 2 MgCl2, 0.36 CaCl2, 1 EGTA, 4 MgATP, 0.3 NaGTP and 10 HEPES, pH = 7.20 with CsOH (calculated free [Ca^2+] = 100 nM using WebMaxChelator http://www.stanford.edu/~cpatton/maxc.html, assuming an ionic strength of 0.16). The standard external solution contained (in mM): 150 NaCl, 4 KCl, 2 CaCl2, 1 MgCl2, 10 HEPES and 10 D-glucose (pH = 7.40) with NaOH. Currents were elicited by a voltage ramp protocol consisting of a 50 ms step to −100 mV, followed by a 200 ms ramp to +100 mV and 10 ms at +100 mV. Voltage ramps were applied every 10 s from a holding potential of 0 mV. Results were expressed as means ± S.E.M.

A-673 cells = format: cell-based
Method: Cell viability was measured 48 hours later using Cell Titer-Glo.

Cc1cc(N2CCCCC2)nc2ccccc12 [ML204]
effect on englerin A induced inward and outward currents (TRPC4): inhibited | doses of ML204 alone at which A-673 cell growth is impaired (A-673 cells): higher than 50 μM | rescue of growth inhibition by englerin A (A-673 cells; 50 μM ML204 with 50 nM englerin A, A-673 cells): partially rescued

Source: article PMC4476799, “Englerin A Agonizes the TRPC4/C5 Cation Channels to Inhibit Tumor Cell Line Proliferation” (PLoS ONE, 2015)
